In US20170029451A1, “BRANCHED CHAIN ACYCLIC NUCLEOSIDE PHOSPHONATE ESTERS AND METHODS OF SYNTHESIS AND USES THEREOF” (CHIMERIX, INC., priority 2013, published 2017):
Where two headings read alike, the source gives them in different places.

How the values were obtained:
[1] = tested on: Herpes Simplex Virus 1 (Strain E-377); experiment: Plaque reduction assay, HSV-1 in human foreskin fibroblast cells; type: cell-based; conditions: Human alphaherpesvirus 1; Strain E-377, human foreskin fibroblast cells
[2] = tested on: HCMV UL54 resistant mutant GDG^RP53; experiment: microbe, parasite or virus in culture; type: cell-based, Human Cytomegalovirus (HCMV); conditions: Human betaherpesvirus 5, Fibroblast
[3] = tested on: Vaccinia Virus (Strain Copenhagen); experiment: microbe, parasite or virus in culture; type: cell-based; conditions: Orthopoxvirus vaccinia, Fibroblast, read-out: VACV EC50, μM
[4] = Cytotoxicity (CC50) in MT4 cells; type: cell-based; conditions: human
Procedure: Costar 96-well tissue culture plates were seeded with 5,000 MT4 cells (NIH AIDS Reagents Program)/well in RPMI (Lonza, Cat 12-11F) containing 10% Hyclone Standard Fetal Bovine Serum (FBS, Cat 5H30088.03), 1% Hyclone Penicillin and Streptomycin (Cat SV30010), and 2 mM Lonza L-Glutamine (Cat 17-605E). Outer wells were not used to minimize the edge-effect produced by extended incubations. Serial dilutions of test compounds were added to the cells and plates were incubated for 6 days at 37° C. in 5% CO2. After 6 days of incubation 40 μL of Cell Titer 96® Aqueous MTS Reagent (Promega, G111) was added as directed by manufacturer to the 200 μL media in each well and incubated at 37° C. until the untreated-cell controls developed an 490 nm absorbance between 1.1 and 1.8. The final absorbance readings were read using a BioTek Synergy 2, and Gen 5 software (BioTek Instruments, Inc.) was used to calculate the concentration which inhibited MT4 cells by 50% (CC50).

[5] = Cytotoxicity in BCBL-1 cells; type: cell-based; conditions: human, cell line BCBL-1 (HHV-8 row)
Procedure: (§1) Cell viability in all assays with lymphocytes was assessed with the CellTiter-Glo Luminescent Cell Viability Assay (Promega). Briefly, assay plates were incubated at ambient temperature for 30 min then 50 µl of CellTiter-Glo reagent was added to each well and the plates were mixed for 2 min on an orbital shaker to lyse the cells. Plates were then incubated for an additional 10 min at ambient temperature and the luminescence was quantified on a luminometer. Standard methods were used to calculate drug concentrations that inhibited the proliferation of Akata, HSB-2, BCLB-1, or Molt-3 cells by 50% (CC50).

[6] = Cytotoxicity in 2.2.15 cells; type: cell-based; conditions: human, cell line 2.2.15 (HBV row)
Poliovirus 3 = experiment: microbe, parasite or virus in culture; type: cell-based; conditions: Enterovirus C, Vero 76
HHV-6B = experiment: DNA hybridization assay for HHV-6B in MOLT-3 cells; type: cell-based, human herpes virus 6 (HHV-6); conditions: Homo sapiens; Virus HHV-6B, cell line MOLT-3
Procedure: Assays for EBV were performed in Akata cells that were induced to undergo a lytic infection with 50 μg/ml of a goat anti-human IgG antibody by standard methods. Experimental compounds were diluted in round bottom 96-well plates to yield concentrations ranging from 20 to 0.016 μM. Akata cells were added to the plates at a concentration of 4×10^4 cells per well and incubated for 72 h. For HHV-6 assays, compounds were serially diluted in 96-well plates then 1×10^4 uninfected HSB-2 or Molt-3 cells were added to each well. Infection was initiated by adding HHV-6A infected HSB-2 cells, or HHV-6B infected Molt-3 cells, at a ratio of approximately 1 infected cell for every 10 uninfected HSB-2 cells or Molt-3 cells respectively and incubated for 7 d at 37° C.
For all assays, 100 µl of denaturation buffer (1.2M NaOH, 4.5M […] NaCl) was added to each well to denature the DNA and a […] aliquot was aspirated through an Immobilon nylon membrane (Millipore, Bedford, Mass.) using a Biodot apparatus (Bio-Rad, Hercules, Calif.). The membranes were then allowed to dry before equilibration in DIG Easy Hyb (Roche Diagnostics, Indianapolis, Ind.) at 56° C. for 30 min. Specific digoxigenin (DIG)-labeled probes were prepared for each virus according to the manufacturer's protocol (Roche Diagnostics). […]

[7] = Cytotoxicity in MOLT-3 cells; type: cell-based; conditions: human, cell line MOLT-3 (HHV-6B row)
Procedure: as §1

in vitro = conditions: human
[8] = CellTiter-Glo cytotoxicity assay in Akata cells; conditions: human

CC(C)CCCCCCCCCCCCCCOCCCOP(=O)(O)COC(CO)Cn1ccc(=O)[nH]c1=O (centres unmarked) [Compound 12]
EC50 [1]: > 50 µM | EC50 ([2]; read-out: EC50 μM, Virus GDG^RP53, human foreskin fibroblast cells): ~0.171 µM | EC90 ([2]; read-out: EC90 μM): 1.55 µM | EC50 [3]: > 10 µM | CC50 at 6 days ([4]; MT4 cells (Table 7), read-out: MT4 CC50): 25.6 µM | CC50 at 6 days ([4]; Mean XC50 (Table 9), read-out: MT4 cytotoxicity CC50): 24.7 µM | CC50 [5]: > 10 µM | CC50 [6]: 34 µM | EC50 (Poliovirus 3): 3.3 µM | EC50 (HHV-6B): 4.7 µM | CC50 [7]: 8.4 µM | CC50 (in vitro): > 20 µM | CC50 (in vitro; CC50 (μM)): 36.9 µM | CC50 [8]: 18 µM
